Measured values reported in the NIST ThermoML archive (doi:10.1021/je2000606).

Experiments:
[1] = refractive index (Na D-line) (dimensionless); xn = mol fraction of the nth substance listed; conditions: 101 kPa, Liquid
[2] = xn = mol fraction of the nth substance listed; conditions: 101 kPa, Liquid
[3] = 101.33 kPa, Liquid; for viscosity: Falling or rolling sphere viscometry; for mass density: Vibrating tube method
[4] = refractive index (Na D-line) (dimensionless); conditions: 101.33 kPa, Liquid, Standard Abbe refractometry

CCCCn1cc[n+](C)c1.C[C@H](N)C(=O)[O-] [3-butyl-1-methyl-1H-imidazolium L-alaninate] + CO
Conditions | mass density, [2] [kg/m3] | refractive index, [1] | viscosity, [2] [mPa·s]
298.15 K, x1 = 0.0986 | 906.31 | 1.3952 | 1.824
298.15 K, x1 = 0.2015 | 968.55 | 1.438 | 2.979
298.15 K, x1 = 0.2837 | 998.11 | 1.4595 | 4.892
298.15 K, x1 = 0.3985 | 1024.98 | 1.4787 | 8.963
298.15 K, x1 = 0.5105 | 1042.62 | 1.4914 | 15.2
298.15 K, x1 = 0.6035 | 1053.47 | 1.4994 | 22.23
298.15 K, x1 = 0.7011 | 1062.38 | 1.5058 | 31.13
298.15 K, x1 = 0.8152 | 1070.44 | 1.5111 | 45.03
298.15 K, x1 = 0.9139 | 1076 | 1.5147 | 60.33
303.15 K, x1 = 0.0986 | 901.65 | 1.3926 | 1.753
303.15 K, x1 = 0.2015 | 963.93 | 1.435 | 2.76
303.15 K, x1 = 0.2837 | 993.59 | 1.4564 | 3.714
303.15 K, x1 = 0.3985 | 1020.56 | 1.4755 | 6.403
303.15 K, x1 = 0.5105 | 1038.31 | 1.4883 | 10.73
303.15 K, x1 = 0.6035 | 1049.27 | 1.4964 | 16.01
303.15 K, x1 = 0.7011 | 1058.3 | 1.5029 | 22.63
303.15 K, x1 = 0.8152 | 1066.5 | 1.5087 | 32.91
303.15 K, x1 = 0.9139 | 1072.2 | 1.5126 | 45.02
308.15 K, x1 = 0.0986 | 896.59 | 1.3901 | 1.829
308.15 K, x1 = 0.2015 | 959.34 | 1.4323 | 2.349
308.15 K, x1 = 0.2837 | 989.32 | 1.4533 | 3.429
308.15 K, x1 = 0.3985 | 1016.81 | 1.4723 | 5.513
308.15 K, x1 = 0.5105 | 1034.85 | 1.485 | 9.168
308.15 K, x1 = 0.6035 | 1046.07 | 1.493 | 13.4
308.15 K, x1 = 0.7011 | 1055.34 | 1.5 | 18.29
308.15 K, x1 = 0.8152 | 1063.85 | 1.5059 | 26.27
308.15 K, x1 = 0.9139 | 1069.71 | 1.5105 | 35.3
313.15 K, x1 = 0.0986 | 892.46 | 1.3881 | 1.34
313.15 K, x1 = 0.2015 | 955.28 | 1.4297 | 2.113
313.15 K, x1 = 0.2837 | 985.35 | 1.4502 | 2.792
313.15 K, x1 = 0.3985 | 1012.89 | 1.4692 | 5.197
313.15 K, x1 = 0.5105 | 1031.1 | 1.4817 | 8.3
313.15 K, x1 = 0.6035 | 1042.42 | 1.4898 | 11.91
313.15 K, x1 = 0.7011 | 1051.82 | 1.497 | 15.87
313.15 K, x1 = 0.8152 | 1060.49 | 1.5034 | 21.92
313.15 K, x1 = 0.9139 | 1066.51 | 1.5082 | 29.18

CCCCn1cc[n+](C)c1.C[C@H](N)C(=O)[O-] [3-butyl-1-methyl-1H-imidazolium L-alaninate]
Conditions | mass density, [3] [kg/m3] | refractive index, [4] | viscosity, [3] [mPa·s]
298.15 K | 1080.2 | 1.5184 | 78.3
303.15 K | 1076.5 | 1.5168 | 59.77
308.15 K | 1074.2 | 1.5153 | 47.03
313.15 K | 1071.1 | 1.5135 | 37.95

OCc1ccccc1 [benzenemethanol]
Conditions | mass density, [3] [kg/m3] | refractive index, [4] | viscosity, [3] [mPa·s]
298.15 K | 1041.64 | 1.5371 | 5.55
303.15 K | 1037.42 | 1.5349 | 4.675
308.15 K | 1033.84 | 1.5323 | 4.01
313.15 K | 1030.43 | 1.5301 | 3.522

CO [methanol]
Conditions | mass density, [3] [kg/m3] | refractive index, [4] | viscosity, [3] [mPa·s]
298.15 K | 786.4 | 1.3266 | 0.532
303.15 K | 782.2 | 1.3243 | 0.515
308.15 K | 776.7 | 1.3224 | 0.465
313.15 K | 772.9 | 1.3208 | 0.441

CCCCn1cc[n+](C)c1.C[C@H](N)C(=O)[O-] [3-butyl-1-methyl-1H-imidazolium L-alaninate] + OCc1ccccc1
Conditions | mass density, [2] [kg/m3] | refractive index, [1] | viscosity, [2] [mPa·s]
298.15 K, x1 = 0.1012 | 1052.86 | 1.5355 | 6.989
298.15 K, x1 = 0.1939 | 1059.8 | 1.534 | 8.647
298.15 K, x1 = 0.3103 | 1066.02 | 1.532 | 11.9
298.15 K, x1 = 0.3971 | 1069.57 | 1.5304 | 14.7
298.15 K, x1 = 0.4864 | 1072.4 | 1.5287 | 18.75
298.15 K, x1 = 0.6015 | 1075.14 | 1.5264 | 26.24
298.15 K, x1 = 0.6945 | 1076.58 | 1.5245 | 34.42
298.15 K, x1 = 0.8015 | 1077.73 | 1.5223 | 46.72
298.15 K, x1 = 0.9026 | 1078.72 | 1.5203 | 61.33
303.15 K, x1 = 0.1012 | 1048.56 | 1.5333 | 5.691
303.15 K, x1 = 0.1939 | 1055.61 | 1.5319 | 6.738
303.15 K, x1 = 0.3103 | 1061.88 | 1.53 | 9.274
303.15 K, x1 = 0.3971 | 1065.49 | 1.5285 | 11.46
303.15 K, x1 = 0.4864 | 1068.42 | 1.5268 | 14.62
303.15 K, x1 = 0.6015 | 1071.16 | 1.5246 | 20.5
303.15 K, x1 = 0.6945 | 1072.71 | 1.5227 | 26.62
303.15 K, x1 = 0.8015 | 1073.95 | 1.5206 | 35.94
303.15 K, x1 = 0.9026 | 1074.98 | 1.5186 | 46.96
308.15 K, x1 = 0.1012 | 1045.09 | 1.5308 | 4.951
308.15 K, x1 = 0.1939 | 1052.25 | 1.5295 | 5.953
308.15 K, x1 = 0.3103 | 1058.75 | 1.5277 | 7.695
308.15 K, x1 = 0.3971 | 1062.51 | 1.5263 | 9.977
308.15 K, x1 = 0.4864 | 1065.53 | 1.5247 | 12.61
308.15 K, x1 = 0.6015 | 1068.43 | 1.5226 | 17.36
308.15 K, x1 = 0.6945 | 1070.11 | 1.5209 | 22.13
308.15 K, x1 = 0.8015 | 1071.46 | 1.5189 | 29.01
308.15 K, x1 = 0.9026 | 1072.58 | 1.517 | 36.89
313.15 K, x1 = 0.1012 | 1041.62 | 1.5286 | 4.28
313.15 K, x1 = 0.1939 | 1048.77 | 1.5273 | 5.515
313.15 K, x1 = 0.3103 | 1055.35 | 1.5256 | 7.175
313.15 K, x1 = 0.3971 | 1059.07 | 1.5242 | 8.904
313.15 K, x1 = 0.4864 | 1062.18 | 1.5227 | 11.02
313.15 K, x1 = 0.6015 | 1065.2 | 1.5206 | 15.01
313.15 K, x1 = 0.6945 | 1066.87 | 1.5189 | 18.65
313.15 K, x1 = 0.8015 | 1068.31 | 1.517 | 24.47
313.15 K, x1 = 0.9026 | 1069.52 | 1.5152 | 30.69
